Results: US6794396B2, “Substituted pyridines useful for inhibiting cholesteryl ester transfer protein activity” (Pharmacia Corporation, priority 1998, dated 2004)
Where two headings read alike, the source gives them in different places.

Columns and labels:
CETP [1] = biological target: T1, CETP (Homo sapiens, UniProt P11597); assay: CETP activity in vitro: transfer of [3H]CE from HDL donor to LDL acceptor particles; assay type: biochemical
T1 construct: made in house; host or cells: CHO cells (serum-free conditioned medium)
T1 sequence (P11597 18-493): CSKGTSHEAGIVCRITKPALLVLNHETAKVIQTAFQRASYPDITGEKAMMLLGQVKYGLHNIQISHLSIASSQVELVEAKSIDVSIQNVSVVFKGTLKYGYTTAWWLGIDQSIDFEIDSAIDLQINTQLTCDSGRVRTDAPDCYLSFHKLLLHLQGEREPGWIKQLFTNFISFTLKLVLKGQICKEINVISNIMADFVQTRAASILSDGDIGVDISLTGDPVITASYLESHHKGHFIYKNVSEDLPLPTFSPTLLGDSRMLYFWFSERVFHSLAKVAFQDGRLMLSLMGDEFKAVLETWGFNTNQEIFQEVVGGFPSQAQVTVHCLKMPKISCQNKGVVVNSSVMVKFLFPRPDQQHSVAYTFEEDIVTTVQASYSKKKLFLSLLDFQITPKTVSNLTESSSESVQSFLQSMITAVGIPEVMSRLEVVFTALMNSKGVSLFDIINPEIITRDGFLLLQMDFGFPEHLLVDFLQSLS
Summary of the method: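 Transfer of radiolabelled cholesteryl ester from HDL to LDL was followed over 2 h at 37 °C in Tris buffer (pH 7.4, 150 mM NaCl, 2 mM EDTA, 1% BSA), using CETP secreted by transfected CHO cells. Radioactivity in dextran sulfate/Mg-precipitated LDL was measured by scintillation counting, giving IC50.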

[2] = biological target: T2, CETP in human plasma or serum pool (Homo sapiens, UniProt P11597); assay: Whole serum CETP activity assay (tritiated cholesterol ester); assay type: biochemical; conditions: 4 hours at 37° C.
T2 construct: from tissue; host or cells: pooled human EDTA plasma or serum from healthy volunteers
T2 sequence (P11597 18-493): T1 sequence (P11597 18-493)
Protocol: Blood was obtained from healthy volunteers recruited from the personnel of Monsanto Company, Saint Louis, Mo. Blood was either collected in tubes containing EDTA (EDTA plasma pool) or in tubes without EDTA (spun to form the serum pool). The EDTA human plasma pool or human serum pool, previously stored at −20° C., was thawed at room temperature, and centrifuged for 5 minutes to remove any particulate matter. Tritiated HDL, radiolabeled in the cholesteryl ester moiety ([^3H]CE-HDL) as described by Morton and Zilversmit (J. Biol. Chem., 256, 11992-95 (1981) which is incorporated by reference herein), was added to the plasma or serum to a final concentration of (25 μg/ml cholesterol).
Inhibitor compounds were added to the plasma or serum as follows: Equal volumes of the plasma or serum containing the [^3H]CE-HDL (396 μl) were pipetted into micro tubes (Titertube®, Bio-Rad Laboratories, Hercules, Calif.). Compounds, usually dissolved as 20-50 mM stock solutions in DMSO, were serially diluted in DMSO (or an alternative solvent in some cases, such as dimethylformamide or ethanol). Four μl of each of the serial dilutions of inhibitor compounds or DMSO alone were then added to each of the plasma or serum tubes. The tubes were immediately mixed. Triplicate aliquots (100 μl) from each plasma or serum tube were then transferred to wells of 96-well round-bottomed polystyrene microtiter plates (Corning, Corning, N.Y.). Plates were sealed with plastic film and incubated at 37° C. for 4 hours.
Test wells contained plasma or serum with dilutions of inhibitor compounds. Control wells contained plasma or serum with DMSO alone. Blank wells contained plasma or serum with DMSO alone that were left in the micro tubes at 4° C. for the 4 hour incubation and were added to the microtiter wells at the end of the incubation period. VLDL and LDL were precipitated by the addition of 10 μl of precipitating reagent (1% (w/v) Dextran Sulfate (Dextralip50)/0.5M magnesium chloride, pH 7.4) to all wells. The wells were mixed on a plate mixer and then incubated at ambient temperature for 10 min. The plates were then centrifuged at 1000×g for 30 mins at 10° C. The supernatants (50 μl) from each well were then transferred to Picoplate™ 96 plate wells (Packard, Meriden, Conn.) containing […] Microscint™-40 (Packard, Meriden, Conn.). The plates were heat-sealed (TopSeal™-P, Packard, Meriden, Conn.) according to the manufacturers directions and mixed for 30 min.
Radioactivity was measured on a microplate scintillation counter (TopCount, Packard, Meriden, Conn.). […] The maximum percent transfer (in the control wells) was determined using the following equation: [formula]
The percent of control transfer determined in the wells containing inhibitor compounds was determined as follows: [formula]
IC50 values were then calculated from plots of % control versus concentration of inhibitor compound.

CETP [3] = assay: Inhibition of CETP activity in vivo: [3H]CE transfer from HDL to VLDL and LDL after intravenous injection; set-up: species or system golden Syrian hamster; conditions: hamsters, injection into jugular vein, four hours
Source text: Inhibition of CETP by a test compound can be determined by administering the compound to an animal by intravenous injection, determining the rate of transfer of tritium-labeled cholesteryl ester (^3H]CE) from HDL to VLDL and LDL particles, and comparing the rate of transfer with the rate of transfer observed in control animals.
Male golden Syrian hamsters were maintained on a diet of chow containing 0.24% cholesterol for at least two weeks prior to the study. Immediately before the experiment, animals were anesthetized with pentobarbital. Anesthesia was maintained throughout the experiment. Indwelling catheters were inserted into the jugular vein and carotid artery. Test compound, Dimethyl 5,5′-dithiobis[2-difluoromethyl)-4-(2-methylpropyl)-6-(trifluoromethyl)-3-pyridinecarboxylate] (Compound 181), was dissolved as a 80 mM stock solution in vehicle (2% ethanol: 98% PEG 400, Sigma Chemical Company, St. Louis, Mo., USA). At the start of the experiment all animals received 0.2 ml of a solution containing [^3H]-CE-HDL into the jugular vein. [^3H[-CE-HDL is a preparation of human HDL containing tritium-labeled cholesteryl ester, and was prepared according to the method of Glenn et al. (“Quantification of Cholesteryl Ester Transfer Protein (CETP): A) CETP Activity and B) Immunochemical Assay of CETP Protein,” Meth. Enzymol., Glenn and Melton (Meth. Enzymol., 263, 339-351 (1996) which is incorporated herein by reference).
After 2 minutes, the animals received 0.1 ml of the test solution injected into the jugular vein. Control animals received 0.1 ml of the vehicle solution without test compound. After 5 minutes, the first blood samples (0.5 ml) were taken from the carotid artery and collected in standard microtainer tubes containing ethylenediamine tetraacetic acid. Saline (0.5 ml) was injected to flush the catheter and replace blood volume. Subsequent blood samples were taken at two hours and four hours by the same method. Blood samples were mixed well and kept on ice until the completion of the experiment.
Plasma was obtained by centrifugation of the blood samples at 4° C. The plasma (50 μl) was then treated with 5 μl of precipitating reagent (dextran sulfate, 10 g/l; 0.5M magnesium chloride to remove VLDL/LDL. After centrifugation, the resulting supernatant (25 μl) containing the HDL was analyzed for radioactivity using a liquid scintillation counter. The percentage [^3H] CE transferred from HDL to LDL and VLDL (% transfer) was calculated based on the total radioactivity in equivalent serum samples before precipitation. Typically, the amount of transfer from HDL to LDL and VLDL in control animals was 30 to 35% after four hours. The polyethylene glycol vehicle was determined to have no effect on CETP activity in this model.
(Compound 181), and five animals that received vehicle. At two hours, mean values of 13% [^3H]-Ce transfer from HDL to LDL and VLDL were obtained for the control animals, but only 4.7% transfer for the animals receiving Compound 181. […] Student t-tests were performed to determine if the means for control and animals treated with Compound 181 were statistically different.

[4] = Table 6, compounds of formula T-6, read-out: IC50

Row | Compound | IC50 (CETP [1]; Table 5, compounds of formula T-5, read-out: IC50) | IC50 whole serum CETP activity [2] | IC50 (CETP [1]; 50% inhibition of [3H]CE transfer from HDL to LDL, 2 hours at 37° C., read-out: IC50(μm)) | % Transfer of [3H]-CE from HDL to LDL and VLDL (CETP [3]) | % Inhibition of CETP activity (CETP [3]; versus control animals) | IC50 (CETP [1]; [4])
1 | COC(=O)c1c(C(F)F)nc(C(F)(F)F)c(SSc2ccc(C(C)(C)C)cc2)c1CC(C)C [Compound 180, Methyl 5-(4-t-Butylphenyldithio)-2-(difluoromethyl)-4-(2-methylpropyl)-6-(trifluoromethyl)-3-pyridinecarboxylate] | 0.45 µM | 9 µM |  |  |  | 
2 | COC(=O)c1c(C(F)F)nc(C(F)(F)F)c(S)c1CC(C)C [Compound 7, Methyl 2-(Difluoromethyl)-5-mercapto-4-(2-methylpropyl)-6-(trifluoromethyl)-3-pyridinecarboxylate] |  | 17 µM | 8.75 µM | 10.6% | 50% | 
3 | COC(=O)c1c(C(F)F)nc(C(F)(F)F)c(CSc2ccc(Cl)c(Cl)c2)c1CC(C)C [Compound 214, Methyl 5-[(3,4-Dichlorophenyl)thiomethyl]-2-(difluoromethyl)-4-(2-methylpropyl)-6-(trifluoromethyl)-3-pyridinecarboxylate] |  | 70 µM |  |  |  | 2 µM
4 | COC(=O)c1c(C(F)F)nc(C(F)(F)F)c(CSc2ccc3ccccc3c2)c1CC(C)C [Compound 215, Methyl 5-[(2-Naphthyl)thiomethyl]-2-(difluoromethyl)-4-(2-methylpropyl)-6-(trifluoromethyl)-3-pyridinecarboxylate] |  | 110 µM |  |  |  | 2 µM
